The source of these data is patent US20060089378A1 (priority 2004, published 2006).

In one assay the target is CB1 receptor (human) (Homo sapiens, UniProt P21554). In words: cell-based. The following applies: for CB1 Receptor Functional Activity (change in functional activity, CRE β-gal): one compound concentration, β-galactosidase activity relative to vehicle treated cells.
For a further assay, the target named is T1, Cannabinoid CB1 Receptor (Homo sapiens, UniProt P21554).
T1 construct: expressed in transfected cells
T1 sequence (P21554 whole entry): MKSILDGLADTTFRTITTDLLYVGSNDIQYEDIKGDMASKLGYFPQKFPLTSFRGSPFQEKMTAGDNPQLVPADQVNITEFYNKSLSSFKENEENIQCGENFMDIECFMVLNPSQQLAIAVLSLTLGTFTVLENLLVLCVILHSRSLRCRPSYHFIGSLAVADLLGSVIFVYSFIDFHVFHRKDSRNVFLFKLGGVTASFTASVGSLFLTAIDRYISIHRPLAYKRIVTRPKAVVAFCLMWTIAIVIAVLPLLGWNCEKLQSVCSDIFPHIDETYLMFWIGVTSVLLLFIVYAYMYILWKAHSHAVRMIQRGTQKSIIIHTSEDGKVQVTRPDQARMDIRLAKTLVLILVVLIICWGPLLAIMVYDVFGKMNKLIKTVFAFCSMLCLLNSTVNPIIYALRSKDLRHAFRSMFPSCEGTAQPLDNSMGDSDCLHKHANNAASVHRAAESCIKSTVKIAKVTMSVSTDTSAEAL
The experiment in a line: Binding assay for CB1 agonists or inverse agonists (radioligand competition, membranes of transfected SK-N-MC cells). The following applies: for inhibition at 0.2 µM: read-out: Cannabinoid CB1 Receptor Binding percent inhibition.

The next assay deals with T2, Cannabinoid CB2 Receptor (Homo sapiens, UniProt P34972).
T2 construct: expressed in transfected cells
T2 sequence (P34972 whole entry): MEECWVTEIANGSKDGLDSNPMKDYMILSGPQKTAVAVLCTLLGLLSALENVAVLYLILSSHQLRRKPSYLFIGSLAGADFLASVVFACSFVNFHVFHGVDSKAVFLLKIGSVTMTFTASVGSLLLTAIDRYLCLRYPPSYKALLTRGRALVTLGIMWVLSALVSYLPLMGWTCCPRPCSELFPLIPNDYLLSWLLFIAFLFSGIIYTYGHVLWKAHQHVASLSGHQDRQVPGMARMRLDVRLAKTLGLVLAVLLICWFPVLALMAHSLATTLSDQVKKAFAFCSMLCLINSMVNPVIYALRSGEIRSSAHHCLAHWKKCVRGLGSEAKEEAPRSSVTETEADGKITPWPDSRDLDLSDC
The experiment in a line: Binding assay for CB2 agonists or inverse agonists (radioligand competition, membranes of transfected SK-N-MC cells). To be noted: for inhibition at 0.2 µM: read-out: Cannabinoid CB2 Receptor Binding percent inhibition.

pEC50, pIC50: −log10 of the molar value. Like-named read-outs stand apart in the source and are kept apart here.

CB1 receptor (human), sequence (P21554 whole entry): as the sequence (P21554 whole entry) above

As for `CC(NC(=O)c1nn(-c2ccc(Cl)cc2Cl)c2c1CN(C(=O)OCc1ccccc1)C/C2=C\c1ccc(F)cc1)c1ccccn1` (stereo not drawn) [Cpd 25, (7E)-1-(2,4-dichloro-phenyl)-7-(4-fluoro-benzylidene)-3-(1-pyridin-2-yl-ethylcarbamoyl)-1,4,6,7-tetrahydro-pyrazolo[4,3-c]pyridine-5-carboxylic acid benzyl ester], at CB1 receptor (human), the negative logarithm of the EC50 (pEC50) was 7.05. For the same compound, the pIC50 on Cannabinoid CB1 Receptor is 7.30. Also, at Cannabinoid CB2 Receptor, the inhibition at 0.2 µM turned out to be 17%.

As to `CN(C)S(=O)(=O)N1CCc2c(c(C(=O)NC3C4(C)CCC(C4)C3(C)C)nn2C2CCCCC2)C1` (stereo not drawn) [Cpd 127, 1-cyclohexyl-5-dimethylsulfamoyl-4,5,6,7-tetrahydro-1H-pyrazolo[4,3-c]pyridine-3-carboxylic acid (1,3,3-trimethyl-bicyclo[2.2.1]hept-2-yl)-amide], the “CB1 Receptor Functional Activity (change in functional activity, CRE β-gal)” value on CB1 receptor (human) is recorded as 28%. The figures for the negative-log IC50 (pIC50) at Cannabinoid CB1 Receptor and at Cannabinoid CB2 Receptor were 5.59 and 6.05, respectively.

`COC(=O)CN1CCc2c(c(C(=O)NC3C4(C)CCC(C4)C3(C)C)nn2C2CCCCC2)C1` (stereo not drawn) [Cpd 128, [1-cyclohexyl-3-(1,3,3-trimethyl-bicyclo[2.2.1]hept-2-ylcarbamoyl)-1,4,6,7-tetrahydro-pyrazolo[4,3-c]pyridin-5-yl]-acetic acid methyl ester]: on CB1 receptor (human), the “CB1 Receptor Functional Activity (change in functional activity, CRE β-gal)” value is listed as −7%. In addition, the pIC50 on Cannabinoid CB1 Receptor (human CB1, SK-N-MC cell membranes, calculated by linear regression from percent inhibition at various concentrations, read-out: Cannabinoid CB1 Receptor Binding IC50) was 6.15; at Cannabinoid CB2 Receptor (human CB2, SK-N-MC cell membranes, calculated by linear regression from percent inhibition at various concentrations, read-out: Cannabinoid CB2 Receptor Binding IC50), 6.40.

As to `CCOC(=O)N1CCc2c(c(C(=O)NC3C4(C)CCC(C4)C3(C)C)nn2-c2ccccc2)C1` (stereo not drawn) [Cpd 113, 1-phenyl-3-(1,3,3-trimethyl-bicyclo[2.2.1]hept-2-ylcarbamoyl)-1,4,6,7-tetrahydro-pyrazolo[4,3-c]pyridine-5-carboxylic acid ethyl ester], the “CB1 Receptor Functional Activity (change in functional activity, CRE β-gal)” value at CB1 receptor (human) was found to be 57%. Further, the values for the negative logarithm of the IC50 (pIC50) at Cannabinoid CB1 Receptor and on Cannabinoid CB2 Receptor were 5.64 and 7.10, respectively.

Regarding `CCCCn1nc(C(=O)NC2C3(C)CCC(C3)C2(C)C)c2c1CCN(C(=O)OC)C2` (stereo not drawn) [Cpd 116, 1-butyl-3-(1,3,3-trimethyl-bicyclo[2.2.1]hept-2-ylcarbamoyl)-1,4,6,7-tetrahydro-pyrazolo[4,3-c]pyridine-5-carboxylic acid methyl ester], the negative-log EC50 (pEC50) on CB1 receptor (human) is 5.54. At Cannabinoid CB1 Receptor, this compound had a pIC50 of 7.00. For the same compound, the inhibition at 0.2 µM on Cannabinoid CB2 Receptor was 53%.

The compound `CC(=O)N1C/C(=C\c2ccc(F)cc2)c2c(c(C(=O)NN3CC4CCCC4C3)nn2-c2ccc(Cl)cc2Cl)C1` (stereo not drawn) [Cpd 91, (7E)-5-acetyl-1-(2,4-dichloro-phenyl)-7-(4-fluoro-benzylidene)-4,5,6,7-tetrahydro-1H-pyrazolo[4,3-c]pyridine-3-carboxylic acid (hexahydro-cyclopenta[c]pyrrol-2-yl)-amide] gave a pEC50 at CB1 receptor (human) of 8.52. At Cannabinoid CB1 Receptor, this compound gave a negative logarithm of the IC50 (pIC50) of 7.30. For the same compound, the inhibition at 0.2 µM on Cannabinoid CB2 Receptor worked out at 14%.

`C[C@@H](NC(=O)c1nn(-c2ccc(Cl)cc2Cl)c2c1CN(S(C)(=O)=O)C/C2=C\c1ccc(F)cc1)c1ccccn1` [Cpd 140, (7E)-1-(2,4-dichloro-phenyl)-7-(4-fluoro-benzylidene)-5-methanesulfonyl-4,5,6,7-tetrahydro-1H-pyrazolo[4,3-c]pyridine-3-carboxylic acid [(1R)-1-pyridin-2-yl-ethyl]-amide] had a pEC50 on CB1 receptor (human) of 8.70. Also, the inhibition at 0.2 µM was found to be 96% on Cannabinoid CB1 Receptor and 9% at Cannabinoid CB2 Receptor.

Regarding `COc1ccc(/C=C2\CN(C=O)Cc3c(C(=O)N[C@H](C)c4ccccc4)nn(-c4ccc(Cl)cc4Cl)c32)cc1` [Cpd 45, (7E)-1-(2,4-dichloro-phenyl)-5-formyl-7-(4-methoxy-benzylidene)-4,5,6,7-tetrahydro-1H-pyrazolo[4,3-c]pyridine-3-carboxylic acid [(1R)-1-phenyl-ethyl]-amide], the pEC50 at CB1 receptor (human) was 10.00. On Cannabinoid CB1 Receptor, this compound gave a pIC50 of 8.52. In addition, at Cannabinoid CB2 Receptor, the inhibition at 0.2 µM was determined as 45%.

For `CC(NC(=O)c1nn(-c2ccc(Cl)cc2Cl)c2c1CN(S(C)(=O)=O)C/C2=C\c1ccc(F)cc1)c1ccccn1` (stereo not drawn) [Cpd 27, (7E)-1-(2,4-dichloro-phenyl)-7-(4-fluoro-benzylidene)-5-methanesulfonyl-4,5,6,7-tetrahydro-1H-pyrazolo[4,3-c]pyridine-3-carboxylic acid (1-pyridin-2-yl-ethyl)-amide], the pEC50 at CB1 receptor (human) is 8.22. Moreover, the pIC50 at Cannabinoid CB1 Receptor is 8.30. Further, the inhibition at 0.2 µM on Cannabinoid CB2 Receptor came out at 16%.

On CB1 receptor (human), `O=C(NN1CCCCC1)c1nn(-c2ccc(Cl)cc2)c2c1CNC/C2=C\c1ccc(F)cc1` [Cpd 76, (7E)-1-(4-chloro-phenyl)-7-(4-fluoro-benzylidene)-4,5,6,7-tetrahydro-1H-pyrazolo[4,3-c]pyridine-3-carboxylic acid piperidin-1-ylamide] had a negative logarithm of the EC50 (pEC50) of 7.52. The figures for the inhibition at 0.2 µM at Cannabinoid CB1 Receptor and on Cannabinoid CB2 Receptor were 48% and 0%, respectively.

`CS(=O)(=O)N1C/C(=C\c2ccc(F)cc2)c2c(c(C(=O)NN3CCCCC3)nn2-c2ccc(Cl)cc2Cl)C1` [Cpd 33, (7E)-1-(2,4-dichloro-phenyl)-7-(4-fluoro-benzylidene)-5-methanesulfonyl-4,5,6,7-tetrahydro-1H-pyrazolo[4,3-c]pyridine-3-carboxylic acid piperidin-1-ylamide] had a negative-log EC50 (pEC50) at CB1 receptor (human) of 8.05. This compound gave a pIC50 on Cannabinoid CB1 Receptor of 7.52. The inhibition at 0.2 µM on Cannabinoid CB2 Receptor was 15%.

As for `COc1ccc(/C=C2\CN(C(=O)OC(C)(C)C)Cc3c(C(=O)NN4CCCCC4)nn(-c4ccc(Cl)cc4Cl)c32)cc1` [Cpd 37, (7E)-1-(2,4-dichloro-phenyl)-7-(4-methoxy-benzylidene)-3-(piperidin-1-ylcarbamoyl)-1,4,6,7-tetrahydro-pyrazolo[4,3-c]pyridine-5-carboxylic acid tert-butyl ester], the pEC50 at CB1 receptor (human) was 8.30. Besides, the pIC50 at Cannabinoid CB1 Receptor is 7.05. Besides, the inhibition at 0.2 µM at Cannabinoid CB2 Receptor was 27%.

In turn, `COc1ccc(/C=C2\CN(C(=O)OC(C)(C)C)Cc3c(C(=O)N[C@H](C)c4ccccn4)nn(-c4ccc(Cl)cc4Cl)c32)cc1` [Cpd 89, (7E)-1-(2,4-dichloro-phenyl)-7-(4-methoxy-benzylidene)-3-[(1R)-1-pyridin-2-yl-ethylcarbamoyl]-1,4,6,7-tetrahydro-pyrazolo[4,3-c]pyridine-5-carboxylic acid tert-butyl ester] showed a pEC50 on CB1 receptor (human) of 8.30. The negative logarithm of the IC50 (pIC50) on Cannabinoid CB1 Receptor is 7.70. Besides, on Cannabinoid CB2 Receptor, the inhibition at 0.2 µM is 27%.

With `COC(=O)N1C/C(=C\c2ccc(OC)cc2)c2c(c(C(=O)NC(C)c3ccccn3)nn2-c2ccc(Cl)cc2Cl)C1` (stereo not drawn) [Cpd 62, (7E)-1-(2,4-dichloro-phenyl)-7-(4-methoxy-benzylidene)-3-(1-pyridin-2-yl-ethylcarbamoyl)-1,4,6,7-tetrahydro-pyrazolo[4,3-c]pyridine-5-carboxylic acid methyl ester], the negative-log EC50 (pEC50) on CB1 receptor (human) was 8.70. In addition, the pIC50 at Cannabinoid CB1 Receptor is 8.30. At Cannabinoid CB2 Receptor, the inhibition at 0.2 µM worked out at 70%.

The compound `CCOC(=O)CN1C/C(=C\c2ccc(F)cc2)c2c(c(C(=O)N[C@H](C)c3ccccc3)nn2-c2ccc(Cl)cc2Cl)C1` [Cpd 43, (7E)-[1-(2,4-dichloro-phenyl)-7-(4-fluoro-benzylidene)-3-[(1R)-1-phenyl-ethylcarbamoyl]-1,4,6,7-tetrahydro-pyrazolo[4,3-c]pyridin-5-yl]-acetic acid ethyl ester] showed a pEC50 at CB1 receptor (human) of 9.22. Further, on Cannabinoid CB1 Receptor, the pIC50 was 8.70. The inhibition at 0.2 µM on Cannabinoid CB2 Receptor is 36%.

The compound `COc1ccc(/C=C2\CN(S(=O)(=O)N(C)C)Cc3c(C(=O)NN4CCCCC4)nn(-c4ccc(Cl)cc4Cl)c32)cc1` [Cpd 58, (7E)-1-(2,4-dichloro-phenyl)-5-dimethylsulfamoyl-7-(4-methoxy-benzylidene)-4,5,6,7-tetrahydro-1H-pyrazolo[4,3-c]pyridine-3-carboxylic acid piperidin-1-ylamide] had a pEC50 at CB1 receptor (human) of 8.52. For the same compound, the pIC50 at Cannabinoid CB1 Receptor was 7.70. For the same compound, the inhibition at 0.2 µM at Cannabinoid CB2 Receptor amounted to 53%.

`CC(=O)N1C/C(=C\c2ccc(F)cc2)c2c(c(C(=O)NC(C)c3ccccn3)nn2-c2ccc(Cl)cc2Cl)C1` (stereo not drawn) [Cpd 22, (7E)-5-acetyl-1-(2,4-dichloro-phenyl)-7-(4-fluoro-benzylidene)-4,5,6,7-tetrahydro-1H-pyrazolo[4,3-c]pyridine-3-carboxylic acid (1-pyridin-2-yl-ethyl)-amide] had a negative-log EC50 (pEC50) at CB1 receptor (human) of 8.40. The compound also gave a pIC50 on Cannabinoid CB1 Receptor of 7.52. In addition, the inhibition at 0.2 µM on Cannabinoid CB2 Receptor is 2%.

`Cc1ccc(S(=O)(=O)N2C/C(=C\c3ccc(F)cc3)c3c(c(C(=O)NC(C)c4ccccn4)nn3-c3ccc(Cl)cc3Cl)C2)cc1` (stereo not drawn) [Cpd 26, (7E)-1-(2,4-dichloro-phenyl)-7-(4-fluoro-benzylidene)-5-(toluene-4-sulfonyl)-4,5,6,7-tetrahydro-1H-pyrazolo[4,3-c]pyridine-3-carboxylic acid (1-pyridin-2-yl-ethyl)-amide]: the pEC50 on CB1 receptor (human) was 7.70. The compound further had a pIC50 on Cannabinoid CB1 Receptor of 7.52. Also, at Cannabinoid CB2 Receptor, the inhibition at 0.2 µM came out at 24%.

Compound `C[C@@H](NC(=O)c1nn(-c2ccc(Cl)cc2Cl)c2c1CN(S(=O)(=O)N(C)C)C/C2=C\c1ccc(F)cc1)c1ccccc1` [Cpd 39, (7E)-1-(2,4-dichloro-phenyl)-5-dimethylsulfamoyl-7-(4-fluoro-benzylidene)-4,5,6,7-tetrahydro-1H-pyrazolo[4,3-c]pyridine-3-carboxylic acid [(1R)-1-phenyl-ethyl]-amide] had a pEC50 on CB1 receptor (human) of 9.00. This compound had a pIC50 on Cannabinoid CB1 Receptor of 8.70. For the same compound, at Cannabinoid CB2 Receptor (test concentration of 0.2 μM, compounds without an IC50 binding value), the inhibition at 0.2 µM worked out at 42%.
